Measurements: patent US20080292619A1, “Pharmaceutical Composition Containing Meltrin Antagonist” (MOCHIDA PHARMACEUTICAL CO., LTD., priority 2004, published 2008)
In the oligonucleotide strings, read from the 5' end, every base follows the letter of its sugar. An asterisk marks phosphorothioate; unmarked linkages are phosphodiester. Other units and linkages are bracketed, terminal groups are in braces. A string of capitals states the bases alone. d = 2'-deoxy (DNA)

These substances were tested on human meltrin α RNA (assay: Suppression of human meltrin α expression by antisense compound in RD cell (real time PCR)). Details: 50 nM; RD cell; corrected by GAPDH.
Assay type: cell-based
Summary of the method: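 RD cells transfected with heat-denatured antisense oligodeoxynucleotide plus Lipofectin in Opti-MEM for 4 h at 37° C, then cultured 18 h. Meltrin α RNA quantified by TaqMan RT-PCR against plasmid standard curve, GAPDH-corrected; suppression vs untreated cells, rated +/++/+++ for ≥30/50/70%.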

| Substance | suppression rate of expression, 50 nM |
| --- | --- |
| H118: ggaggtgcccagtgggcctc (GGAGGTGCCCAGTGGGCCTC; antisense; DNA, all phosphorothioate, methylation of C not given here) | + (“+” when the suppression rate was at least 30%) |
| H130 + 5: gagcctgacagggttggaag (GAGCCTGACAGGGTTGGAAG; antisense; DNA, all phosphorothioate, methylation of C not given here) | ++ (“++” when the suppression rate was at least 50%) |
| H130 + 10: gaggtgagcctgacagggtt (GAGGTGAGCCTGACAGGGTT; antisense; DNA, all phosphorothioate, methylation of C not given here) | + (“+” when the suppression rate was at least 30%) |
| H130 + 15: tggccgaggtgagcctgaca (TGGCCGAGGTGAGCCTGACA; antisense; DNA, all phosphorothioate, methylation of C not given here) | ++ (“++” when the suppression rate was at least 50%) |
| H131 + 5: ttttccaaggtggccgaggt (TTTTCCAAGGTGGCCGAGGT; antisense; DNA, all phosphorothioate, methylation of C not given here) | + (“+” when the suppression rate was at least 30%) |
| H131 + 10: aggccttttccaaggtggcc (AGGCCTTTTCCAAGGTGGCC; antisense; DNA, all phosphorothioate, methylation of C not given here) | + (“+” when the suppression rate was at least 30%) |
| H132 + 15: gtaggaatctggcggcttcc (GTAGGAATCTGGCGGCTTCC; antisense; DNA, all phosphorothioate, methylation of C not given here) | + (“+” when the suppression rate was at least 30%) |
| H132 + 17: gggtaggaatctggcggctt (GGGTAGGAATCTGGCGGCTT; antisense; DNA, all phosphorothioate, methylation of C not given here) | ++ (“++” when the suppression rate was at least 50%) |
| H132 + 18: tgggtaggaatctggcggct (TGGGTAGGAATCTGGCGGCT; antisense; DNA, all phosphorothioate, methylation of C not given here) | + (“+” when the suppression rate was at least 30%) |
| H132 + 19: gtgggtaggaatctggcggc (GTGGGTAGGAATCTGGCGGC; antisense; DNA, all phosphorothioate, methylation of C not given here) | + (“+” when the suppression rate was at least 30%) |
| H133 + 1: cggtgggtaggaatctggcg (CGGTGGGTAGGAATCTGGCG; antisense; DNA, all phosphorothioate, methylation of C not given here) | ++ (“++” when the suppression rate was at least 50%) |
| H133 + 3: ttcggtgggtaggaatctgg (TTCGGTGGGTAGGAATCTGG; antisense; DNA, all phosphorothioate, methylation of C not given here) | + (“+” when the suppression rate was at least 30%) |
| H133 + 4: cttcggtgggtaggaatctg (CTTCGGTGGGTAGGAATCTG; antisense; DNA, all phosphorothioate, methylation of C not given here) | ++ (“++” when the suppression rate was at least 50%) |
| H133 + 5: ccttcggtgggtaggaatct (CCTTCGGTGGGTAGGAATCT; antisense; DNA, all phosphorothioate, methylation of C not given here) | + (“+” when the suppression rate was at least 30%) |
| H133: ggtgggtaggaatctggcgg (GGTGGGTAGGAATCTGGCGG; antisense; DNA, all phosphorothioate, methylation of C not given here) | +++ (“+++” when the suppression rate was at least 70%) |
| H134: atctcctgggattgtccttc (ATCTCCTGGGATTGTCCTTC; antisense; DNA, all phosphorothioate, methylation of C not given here) | + (“+” when the suppression rate was at least 30%) |
| H135: aacattctgacactgcagca (AACATTCTGACACTGCAGCA; antisense; DNA, all phosphorothioate, methylation of C not given here) | + (“+” when the suppression rate was at least 30%) |
| H136 + 5: ggccgttgaggggtctgctg (GGCCGTTGAGGGGTCTGCTG; antisense; DNA, all phosphorothioate, methylation of C not given here) | + (“+” when the suppression rate was at least 30%) |
| H136 + 15: gggacattcaggccgttgag (GGGACATTCAGGCCGTTGAG; antisense; DNA, all phosphorothioate, methylation of C not given here) | + (“+” when the suppression rate was at least 30%) |
| H136 + 16: agggacattcaggccgttga (AGGGACATTCAGGCCGTTGA; antisense; DNA, all phosphorothioate, methylation of C not given here) | + (“+” when the suppression rate was at least 30%) |
| H136 + 17: gagggacattcaggccgttg (GAGGGACATTCAGGCCGTTG; antisense; DNA, all phosphorothioate, methylation of C not given here) | + (“+” when the suppression rate was at least 30%) |
| H136 + 18: tgagggacattcaggccgtt (TGAGGGACATTCAGGCCGTT; antisense; DNA, all phosphorothioate, methylation of C not given here) | ++ (“++” when the suppression rate was at least 50%) |
| H136: ttgaggggtctgctgatgtc (TTGAGGGGTCTGCTGATGTC; antisense; DNA, all phosphorothioate, methylation of C not given here) | + (“+” when the suppression rate was at least 30%) |
| H137 + 1: ggctgagggacattcaggcc (GGCTGAGGGACATTCAGGCC; antisense; DNA, all phosphorothioate, methylation of C not given here) | ++ (“++” when the suppression rate was at least 50%) |
| H137 + 2: gggctgagggacattcaggc (GGGCTGAGGGACATTCAGGC; antisense; DNA, all phosphorothioate, methylation of C not given here) | +++ (“+++” when the suppression rate was at least 70%) |
| H137 + 3: ggggctgagggacattcagg (GGGGCTGAGGGACATTCAGG; antisense; DNA, all phosphorothioate, methylation of C not given here) | ++ (“++” when the suppression rate was at least 50%) |
| H137 + 4: tggggctgagggacattcag (TGGGGCTGAGGGACATTCAG; antisense; DNA, all phosphorothioate, methylation of C not given here) | ++ (“++” when the suppression rate was at least 50%) |
| H137: gctgagggacattcaggccg (GCTGAGGGACATTCAGGCCG; antisense; DNA, all phosphorothioate, methylation of C not given here) | ++ (“++” when the suppression rate was at least 50%) |

Same assay, conditions: 200 nM; RD cell; corrected by GAPDH

| Substance | suppression rate of expression, 200 nM |
| --- | --- |
| H114: gtgaaccccaaagacactaa (dG*dT*dG*dA*dA*dC*dC*dC*dC*dA*dA*dA*dG*dA*dC*dA*dC*dT*dA*dA; antisense) | + (“+” when the suppression rate was at least 30%) |
| H115: tggcactgcattgcacactc (dT*dG*dG*dC*dA*dC*dT*dG*dC*dA*dT*dT*dG*dC*dA*dC*dA*dC*dT*dC; antisense) | ++ (“++” when the suppression rate was at least 50%) |
| H117: gcagtggcagttcttcctgt (GCAGTGGCAGTTCTTCCTGT; antisense; DNA, all phosphorothioate, methylation of C not given here) | + (“+” when the suppression rate was at least 30%) |
| H118: ggaggtgcccagtgggcctc (GGAGGTGCCCAGTGGGCCTC; antisense; DNA, all phosphorothioate, methylation of C not given here) | ++ (“++” when the suppression rate was at least 50%) |
| H119: agccaaacttgtcacagaag (AGCCAAACTTGTCACAGAAG; antisense; DNA, all phosphorothioate, methylation of C not given here) | + (“+” when the suppression rate was at least 30%) |
| H123: caggatggtcaccagaattc (CAGGATGGTCACCAGAATTC; antisense; DNA, all phosphorothioate, methylation of C not given here) | + (“+” when the suppression rate was at least 30%) |
| H126: cagcagtcgtatcaaggtct (CAGCAGTCGTATCAAGGTCT; antisense; DNA, all phosphorothioate, methylation of C not given here) | + (“+” when the suppression rate was at least 30%) |
| H129: gggtggccgggaagggcgca (GGGTGGCCGGGAAGGGCGCA; antisense; DNA, all phosphorothioate, methylation of C not given here) | ++ (“++” when the suppression rate was at least 50%) |
| H132: cttcctcatcaggccttttc (CTTCCTCATCAGGCCTTTTC; antisense; DNA, all phosphorothioate, methylation of C not given here) | ++ (“++” when the suppression rate was at least 50%) |
| H133: ggtgggtaggaatctggcgg (GGTGGGTAGGAATCTGGCGG; antisense; DNA, all phosphorothioate, methylation of C not given here) | +++ (“+++” when the suppression rate was at least 70%) |
| H134: atctcctgggattgtccttc (ATCTCCTGGGATTGTCCTTC; antisense; DNA, all phosphorothioate, methylation of C not given here) | ++ (“++” when the suppression rate was at least 50%) |
| H135: aacattctgacactgcagca (AACATTCTGACACTGCAGCA; antisense; DNA, all phosphorothioate, methylation of C not given here) | ++ (“++” when the suppression rate was at least 50%) |
| H136: ttgaggggtctgctgatgtc (TTGAGGGGTCTGCTGATGTC; antisense; DNA, all phosphorothioate, methylation of C not given here) | +++ (“+++” when the suppression rate was at least 70%) |
| H137: gctgagggacattcaggccg (GCTGAGGGACATTCAGGCCG; antisense; DNA, all phosphorothioate, methylation of C not given here) | ++ (“++” when the suppression rate was at least 50%) |
